The text below walks through data of BindingDB's records for doi:10.1021/jm5003167 (Bristol-Myers Squibb, 2014).

Assay [1] can be described thus: Antagonist activity at CCR1 receptor in human THP1 cells assessed as inhibition of MIP-1alpha induced chemotaxis after 60 mins.
Assay [2] can be described thus: Antagonist activity at CCR1 receptor in human THP1 cells assessed as inhibition of MCP3-induced chemotaxis after 60 mins.
A short description of assay [3]: Antagonist activity at CCR1 receptor in human THP1 cells assessed as inhibition of RANTES-induced chemotaxis after 60 mins.
The nature of assay [4]: Antagonist activity at CCR1 receptor in human THP1 cells assessed as inhibition of HCC4-induced chemotaxis after 60 mins.
Assay [5] can be described thus: Antagonist activity at CCR1 receptor in human THP1 cells assessed as inhibition of LKN1-induced chemotaxis after 60 mins.
A short description of assay [6]: Antagonist activity at CCR1 receptor in human THP1 cells assessed as inhibition of HCC1-induced chemotaxis after 60 mins.
The nature of assay [7]: Antagonist activity at CCR1 receptor in human THP1 cells assessed as inhibition of MPIF1-induced chemotaxis after 60 mins.
Assay [8] can be described thus: Antagonist activity at CCR1 receptor in human THP1 cells assessed as inhibition of MIP-1alpha-induced chemotaxis after 60 mins.

For the compound `CC(C)[C@@H](NC(=O)NC[C@H](C)O)C(=O)N1CC[C@](O)(c2ccc(Cl)cc2)C(C)(C)C1`, in assay [1], the half-maximal inhibitory concentration (IC50) worked out at 7 nM. On the same count and under the same terms, with `CC(C)[C@@H](NC(=O)N[C@H]1CC[C@@H](O)C1)C(=O)N1CC[C@](O)(c2ccc(Cl)cc2)C(C)(C)C1` the figure was 6 nM. On to `CC(C)[C@@H](NC(=O)NCC(C)(C)O)C(=O)N1CC[C@](O)(c2ccc(Cl)cc2)C(C)(C)C1`, for which the IC50 worked out at 6 nM in assay [1]; 9.3 nM in assay [2]; 3.3 nM in assay [3]; 3.2 nM in assay [4]; 16 nM in assay [5]; 7.5 nM in assay [6]. The IC50 was 14 nM in assay [7] and 5.5 nM in assay [8]. Take `CC(C)[C@@H](NC(=O)NC[C@@H](C)O)C(=O)N1CC[C@](O)(c2ccc(Cl)cc2)C(C)(C)C1`: the IC50 in assay [1] was 6 nM.

For the compound `CC(C)[C@@H](NC(=O)NC1CCCC1)C(=O)N1CC[C@](O)(c2ccc(Cl)cc2)C(C)(C)C1`, the IC50 in assay [1] was determined as 3 nM. On the same count and under the same terms, with `CC(C)[C@@H](NC(=O)N[C@@H]1CC[C@H](O)C1)C(=O)N1CC[C@](O)(c2ccc(Cl)cc2)C(C)(C)C1` the figure was 4 nM. Consider `CC(C)[C@@H](NC(=O)N[C@@H]1CC[C@@H](O)C1)C(=O)N1CC[C@](O)(c2ccc(Cl)cc2)C(C)(C)C1`, for which the IC50 in assay [1] stood at 19 nM.

Take `CC(C)[C@@H](NC(=O)CCC(C)(C)O)C(=O)N1CC[C@](O)(c2ccc(Cl)cc2)C(C)(C)C1`: the IC50 in assay [1] stood at 22 nM. As to `CC[C@@H](C)NC(=O)N[C@@H](C(=O)N1CC[C@](O)(c2ccc(Cl)cc2)C(C)(C)C1)C(C)C` [US8633226, 897], the IC50 in assay [1] worked out at 6 nM. Still for that read-out and setting: with `CC(C)[C@@H](NC(=O)N[C@H]1CC[C@H](O)C1)C(=O)N1CC[C@](O)(c2ccc(Cl)cc2)C(C)(C)C1` the figure was 10 nM.
